Experimental findings from patent US5059627A, “Nerve growth factor secretion inducing composition” (Takeda Chemical Industries, Ltd., priority 1989, dated 1991) are described below.

The nature of data set [1]: in vivo. To be noted: mouse, po.
The test system of data set [2] is mice. The following applies: po, groups of 10.

The compound `COC1=C(OC)C(=O)C(C/C=C(\C)CCC=C(C)C)=C(C)C1=O` [Ubiquinone-2, ubiquinone-2] had an LD50 in data set [1] of over 500 mg/kg. Same read-out and setting: in the case of `COc1c(O)c(C)c(CCCCCCCCCCO)c(O)c1OC` [6-(10-hydroxydecyl)-2,3-dimethoxy-5-methyl-1,4-hydroquinone] it was over 1000 mg/kg; in that of `Cc1cc(O)c(C)c(C)c1O` [2,3,5-Trimethyl-1,4-hydroquinone, 2,3,5-trimethyl-1,4-hydroquinone], over 500 mg/kg. In turn, `CC1=CC(=O)c2ccccc2C1=O` [Vitamin K0, vitamin K0] registered an LD50 in data set [2] of 500 mg/kg.
